Laboratory results published in patent US4357470A, “Cephalosporin compounds” (Taisho Pharmaceutical Co., Ltd., priority 1980, dated 1982).
Where a name gives a salt, the structure may show the parent alone. Read-outs that look alike come from different tables or passages of the source.

Key:
[1] = tested on: Escherichia coli NIHJC-2; experiment: Antibacterial activity, agar plate dilution method (MIC), E. coli; assay type: cell-based; conditions: NIHJC2
Experimental: (§1) Antibacterial activities of the compounds of the present invention were tested about various microorganisms using an agar plate dilution method. Commercial cefazolin sodium was used as a control. The test results for 7-[D-α-(4-hydroxy-pyrazino[2,3-f]quinoline-3-carboxamido)-α-phenylacetamido]-3-(1-carboxymethyl-tetrazole-5-yl)thiomethyl-Δ^3 -cephem-4-carboxylic acid disodium salt (TC-203) and 7-[D-Δ-(4-hydroxy-pyrazino[2,3-f]quinoline-3-carboxamido)-Δ-(4-hydroxyphenyl)acetamido]-3-(1-carboxymethyl-tetrazole-5-yl)thiomethyl-Δ^3 -cephem-4-carboxylic acid disodium salt (TC-403) are expressed by MIC value (Minimum Inhibitory Concentration, μg/ml) and shown in Table 1.

[2] = tested on: Pseudomonas aeruginosa NC-5; experiment: Antibacterial activity, agar plate dilution method (MIC), P. aeruginosa; assay type: cell-based; conditions: NC5
Experimental: as §1

[3] = tested on: Staphylococcus aureus FDA 209 P; experiment: Antibacterial activity, agar plate dilution method (MIC), S. aureus; assay type: cell-based; conditions: FDA209
Experimental: as §1

[4] = in vivo; set-up: species or system mice; conditions: mouse, im
Experimental: The compounds of the present invention were administered to mice intramuscularly and change of blood levels with lapse of time was determined. Commercial cefazolin sodium was used as a control.

[5] = tested on: Klebsiella pneumoniae 3K-2; experiment: Antibacterial activity, agar plate dilution method (MIC), K. pneumoniae; assay type: cell-based; conditions: 3K2
Experimental: as §1

[6] = tested on: Proteus vulgaris IID 874; experiment: Antibacterial activity, agar plate dilution method (MIC), P. vulgaris; assay type: cell-based; conditions: IID874
Experimental: as §1

[7] = Intraperitoneal acute toxicity in rats; assay type: in vivo; conditions: dose less than 5000 mg/kg of body weight
Description: The compounds of the present invention are of low toxicity.

[8] = Escherichia coli NIHJC-2, agar plate dilution, read-out: MIC

Row | SMILES | MIC [1, 8] | MIC [2] | MIC [3] | concentration at 0.25 h [4] | concentration at 0.5 h [4] | concentration at 1 h [4] | concentration at 2 h [4] | MIC [5] | MIC [6] | intraperitoneal acute toxicity [7] | MIC ([1]; Escherichia coli)
1 | O=C(O)Cn1nnnc1SCC1=C(C(=O)O)N2C(=O)[C@@H](NC(=O)[C@H](NC(=O)c3cnc4ccc5nccnc5c4c3O)c3ccccc3)[C@H]2SC1 [TC-203, 7-[D-α-(4-hydroxy-pyrazino[2,3-f]quinoline-3-carboxamido)-α-phenylacetamido]-3-(1-carboxymethyl-tetrazole-5-yl)thiomethyl-Δ^3-cephem-4-carboxylic acid disodium salt] | 0.78 µg/mL | 12.5 µg/mL | 3.13 µg/mL | 150 µg/mL | 162 µg/mL | 82 µg/mL | 32 µg/mL | 0.78 µg/mL | 1.56 µg/mL | – | –
2 | O=C(O)Cn1nnnc1SCC1=C(C(=O)O)N2C(=O)[C@@H](NC(=O)[C@H](NC(=O)c3cnc4ccc5nccnc5c4c3O)c3ccc(O)cc3)[C@H]2SC1 [TC-403, 7-[D-Δ-(4-hydroxy-pyrazino[2,3-f]quinoline-3-carboxamido)-Δ-(4-hydroxyphenyl)acetamido]-3-(1-carboxymethyl-tetrazole-5-yl)thiomethyl-Δ^3-cephem-4-carboxylic acid disodium salt] | 1.56 µg/mL | 12.5 µg/mL | 6.25 µg/mL | 92 µg/mL | 180 µg/mL | 62 µg/mL | 42 µg/mL | 1.56 µg/mL | 3.13 µg/mL | hardly shows any intraperitoneal acute toxicity in rats at a dose less than 5000 mg/kg of body weight | –
3 | Cc1nnc(SCC2=C(C(=O)O)N3C(=O)[C@@H](NC(=O)Cn4cnnn4)[C@H]3SC2)s1 [cefazolin sodium, reference compound] | – | > 100 µg/mL | < 0.1 µg/mL | 62 µg/mL | 42 µg/mL | 5.5 µg/mL | – | > 100 µg/mL | > 100 µg/mL | – | 1.56 µg/mL
